Data from US9273057B2 (Bristol-Myers Squibb Company, priority 2012, dated 2016).

Target: CK2A1 (CK2α/β) (Homo sapiens, UniProt P68400)
Assay: CK2 kinase assay, CK2A1 (CK2α/β)
Format: biochemical
Conditions: Table A; read-out: CK2A1 (CK2α/β) (IC50)

CK2A1 (CK2α/β), sequence (P68400 whole entry, species assumed): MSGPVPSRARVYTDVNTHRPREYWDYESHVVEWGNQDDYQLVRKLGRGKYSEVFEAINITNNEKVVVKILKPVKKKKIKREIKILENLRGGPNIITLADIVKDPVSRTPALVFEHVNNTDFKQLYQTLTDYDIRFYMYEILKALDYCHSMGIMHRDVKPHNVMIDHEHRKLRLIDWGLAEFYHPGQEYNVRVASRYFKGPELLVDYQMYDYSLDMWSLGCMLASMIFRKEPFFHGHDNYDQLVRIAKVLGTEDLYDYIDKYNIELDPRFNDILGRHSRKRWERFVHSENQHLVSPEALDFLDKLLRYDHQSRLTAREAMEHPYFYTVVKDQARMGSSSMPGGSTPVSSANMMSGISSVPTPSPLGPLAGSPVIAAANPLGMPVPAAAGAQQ
CK2A1 (CK2α/β), sequence (P67870 whole entry partner, species assumed): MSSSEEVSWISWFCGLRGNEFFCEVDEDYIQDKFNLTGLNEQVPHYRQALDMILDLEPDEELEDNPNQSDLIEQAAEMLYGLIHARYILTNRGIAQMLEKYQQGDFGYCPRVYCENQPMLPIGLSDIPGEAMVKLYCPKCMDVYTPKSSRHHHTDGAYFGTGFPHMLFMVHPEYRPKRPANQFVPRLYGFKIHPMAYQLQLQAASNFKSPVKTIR

| SMILES | IC50 [nM] |
| --- | --- |
| CC(C)(O)C1CN(c2cc(C(F)F)cc(Nc3nc(NC4CC4)c4ncc(C#N)n4n3)c2Cl)CCO1 (racemic) [Example 280, (+/−) 2-((2-chloro-5-(difluoromethyl)-3-(2-(1-hydroxy-1-methylethyl)-4-morpholinyl)phenyl)amino)-4-(cyclopropylamino)imidazo[2,1-f][1,2,4]triazine-7-carbonitrile] | 2.09 |
| CC(C)(F)C(=O)N1CC(N2CCN(c3cc(C#N)cc(Nc4nc(NC5CC5)c5ncc(C#N)n5n4)c3Cl)CC2)C1 [Example 499, 2-[(2-chloro-5-cyano-3-{4-[1-(2-fluoro-2-methylpropanoyl)azetidin-3-yl]piperazin-1-yl}phenyl)amino]-4-(cyclopropylamino)imidazo[2,1-f][1,2,4]triazine-7-carbonitrile] | 3.93 |
| CC(F)(F)C(=O)N1CC(N2CCN(c3cc(C#N)cc(Nc4nc(NC5CC5)c5ncc(C#N)n5n4)c3Cl)CC2)C1 [Example 516, 2-[(2-chloro-5-cyano-3-{4-[1-(2,2-difluoropropanoyl)azetidin-3-yl]piperazin-1-yl}phenyl)amino]-4-(cyclopropylamino)imidazo[2,1-f][1,2,4]triazine-7-carbonitrile] | 4.09 |
| N#Cc1cnc2c(NC3CC3)nc(Nc3cc(C(F)F)cc(N4CCC(C(=O)NC5COC5)CC4)c3Cl)nn12 [Example 547, 1-(2-chloro-3-((7-cyano-4-(cyclopropylamino)imidazo[2,1-f][1,2,4]triazin-2-yl)amino)-5-(difluoromethyl)phenyl)-N-(oxetan-3-yl)piperidine-4-carboxamide] | 2.3 |
| COCCN1CCN(c2cc(C#N)cc(Nc3nc(NC4CC4)c4ncc(C#N)n4n3)c2Cl)CC1 [Example 56] | 1.14 |
| CO[C@@H]1CN(c2cc(C#N)cc(Nc3nc(NC4CC4)c4ncc(C#N)n4n3)c2Cl)CC[C@H]1N (racemic) [Example 188, (+/−)-2-((3-((3R,4R)-4-amino-3-methoxypiperidin-1-yl)-2-chloro-5-cyanophenyl)amino)-4-(cyclopropylamino)imidazo[2,1-f][1,2,4]triazine-7-carbonitrile] | 200 |

Stronger by IC50, values ahead:

| IC50 [nM] | SMILES |
| --- | --- |
| 0.59 | N#Cc1cc(Nc2nc(NC3CC3)c3ncc(C#N)n3n2)c(Cl)c(C2CCN(C3CN(CC4CC4)C3)CC2)c1 [Example 323, 2-((2-chloro-5-cyano-3-(1-(1-(cyclopropylmethyl)-3-azetidinyl)-4-piperidinyl)phenyl)amino)-4-(cyclopropylamino)imidazo [2,1-f][1,2,4]triazine-7-carbonitrile] |
| 0.46 | N#Cc1cc(Nc2nc(NC3CC3)c3ncc(C#N)n3n2)c(Cl)c(N2CCN(C(=O)CCCS(N)(=O)=O)CC2)c1 [Example 93, 4-(4-(2-chloro-5-cyano-3-((7-cyano-4-(cyclopropylamino)imidazo[2,1-f][1,2,4]triazin-2-yl)amino)phenyl)-1-piperazinyl)-4-oxo-1-butanesulfonamide] |
| 0.45 | N#Cc1cc(CNCc2ccccn2)c(Cl)c(Nc2nc(NC3CC3)c3ncc(C#N)n3n2)c1 [Example 467, 2-[(2-chloro-5-cyano-3-{[(pyridin-2-ylmethyl)amino]methyl}phenyl)amino]-4-(cyclopropylamino)imidazo[2,1-f][1,2,4]triazine-7-carbonitrile] |
| 0.51 | CC(=O)N[C@@H]1CN(c2cc(C#N)cc(Nc3nc(NC4CC4)c4ncc(C#N)n4n3)c2Cl)C[C@H]1O (racemic) [Example 10, (+/−) N-((3R,4R)-1-(2-chloro-5-cyano-3-((7-cyano-4-(cyclopropylamino)imidazo [2,1-f][1,2,4]triazin-2-yl)amino)phenyl)-4-hydroxy-3-pyrrolidinyl)acetamide] |
| 0.81 | CC(C)(O)C(=O)N1CC(N2CCN(c3cc(C#N)cc(Nc4nc(NC5CC5)c5ncc(C#N)n5n4)c3Cl)CC2)C1 [Example 484, 2-[(2-chloro-5-cyano-3-{4-[1-(2-hydroxy-2-methylpropanoyl)azetidin-3-yl]piperazin-1-yl}phenyl)amino]-4-(cyclopropylamino)imidazo[2,1-f][1,2,4]triazine-7-carbonitrile] |
